Experimental data as given in patent US20170183644A1, “DRUG COCKTAIL ANALYSES USING MICROSCALE VORTEX ASSISTED ELECTROPORATION” (President and Fellows of Harvard College, priority 2014, published 2017).

Columns and labels:
Ca-27 squamous carcinoma = Ca-27 squamous carcinoma (Wang et al., 2012); read-out: Literature IC50; cited from earlier work
MDA-MB-231 cells [1] = assay: Conventional well-plate drug screening assay, CellTiter-Glo cell viability; format: cell-based; conditions: for effect on cell viability as a single agent: conventional assay
Procedure: These cells were incubated in a humidified incubator at 37° C. with 0% CO2 environment. Cells were harvested for experiments 2 days after the seeding by treating them with 0.25% trypsin-EDTA for 2 minutes. […] Conventional drug screening assays utilizing well-plates were conducted in parallel to evaluate the performance of the proposed microfluidic system. […] For control experiments using the conventional method, the concentrations of drugs were determined such that cells would be exposed in a well plate for 24 hours to the drug amount that is identical to those used for the microfluidic counterpart. […] The CellTiter-Glo Luminescent Cell Viability Assay (Promega, USA) was used to determine the cytotoxicity of tested drugs. First, the correlation between the luminescent intensity and the number of viable cells for the tested cell line was established from luminescence measurements from 96 well plates containing known-quantity of viable cells (LuMate, Model 4400) (see ESI FIG. 2 for calibration curve). For cytotoxicity studies on cells treated with the drugs, all cells present in the well, regardless their viability, were manually counted prior to adding the CellTiter-Glo reagent to the well. The number of viable cells was determined by identifying the corresponding number of viable cells represented by the measured luminescent intensity from the calibration curve. Viability was determined by taking the ratio between the number of viable cells and the total number of treated cells presented in the well.

MDA-MB-231 cells [2] = assay: Microfluidic vortex-assisted electroporation drug screening assay, CellTiter-Glo cell viability; format: cell-based; conditions: for IC50: microfluidic electroporation, single agent, read-out: Proposed IC50; for effect on cell viability as a single agent: microfluidic assay
Procedure: These cells were incubated in a humidified incubator at 37° C. with […] environment. Cells were harvested for experiments 2 days after the seeding by treating them with 0.25% trypsin-EDTA for 2 minutes. The cells were pelleted by centrifuging for 5 minutes at 200×g and resuspended in the growth media to have a final concentration of 5×10^5 cells/mL. The system utilized the pneumatic flow control unit and the electrical equipment that we previously developed. Their detailed specifications and visualized operational protocols (Yun et al., 2013; Vickers et al., 2014) can be found elsewhere. In brief, the flow control unit independently and promptly pressurizes individual solution vials for rapid solution exchanges through the microfluidic system while the electrical equipment generates high-voltage short pulses across the electroporation chambers on demand. […] Solution vials, individually containing cells, drugs and a growth media for flushing, were mounted into the pneumatic flow control unit, and PEEK tubes from each vial inserted into designated inlet ports in the microfluidic electroporator. The system was flushed with the growth media at the operating pressure of 40 psi (equivalent to a flow rate of 400 μL/minute) for 90 seconds prior to the target cell injection step in order to prime the flow speed required for cell trapping (Hur et al., 2011). Once the desired size and number distribution of trapped cells were attained in each cell trapping vortex, not-trapped cells were removed from the device by switching the active solution port from the cell solution to the flush solution. […] The magnitude, V, the width, Kt, and the frequency of applied electrical pulses were monitored in real-time using an oscilloscope (Agilent, USA). Drug delivery doses were varied by exposing trapped cells to a single drug for incubation durations of 30, 60 and 120 seconds in continuous flow. For dual drug delivery tests, trapped cells were sequentially incubated in individual drugs with various dosage combinations by systematically changing treatment duration ratios of two drugs (e.g., 30:30 seconds, 30:60 seconds or 30:120 seconds). Upon completion of the drug delivery process, treated cells were suspended in the growth media and released from the device for downstream analysis by lowering the operating pressure to 30 psi. Collected cells were seeded in 96 well plates and cultured for 24 to 48 hours prior to the cytotoxicity assays. […] Conventional drug screening assays utilizing well-plates were conducted in parallel to evaluate the performance of the proposed microfluidic system. […] For control experiments using the conventional method, the concentrations of drugs were determined such that cells would be exposed in a well plate for 24 hours to the drug amount that is identical to those used for the microfluidic counterpart. […] The CellTiter-Glo Luminescent Cell Viability Assay (Promega, USA) was used to determine the cytotoxicity of tested drugs. First, the correlation between the luminescent intensity and the number of viable cells for the tested cell line was established from luminescence measurements from 96 well plates containing known-quantity of viable cells (LuMate, Model 4400) (see ESI FIG. 2 for calibration curve). For cytotoxicity studies on cells treated with the drugs, all cells present in the well, regardless their viability, were manually counted prior to adding the CellTiter-Glo reagent to the well. The number of viable cells was determined by identifying the corresponding number of viable cells represented by the measured luminescent intensity from the calibration curve. Viability was determined by taking the ratio between the number of viable cells and the total number of treated cells presented in the well.

MDA-MB-231 = MDA-MB-231 (Akbos et al., 2005); read-out: Literature IC50; cited from earlier work
[3] = tested on: MC38 colon cancer cell line; conditions: MC38 colon cancer cell line (Kuriyoma et al., 2000); read-out: Literature IC50; cited from earlier work
[4] = Homo sapiens, MDA-MB-231, well plate, single agent, read-out: Conventional IC50

## Nc1ccn([C@@H]2O[C@H](CO)[C@@H](O)C2(F)F)c(=O)n1 [Gemcitabine, gemcitabine]
Ca-27 squamous carcinoma
  IC50: 340 µM
MDA-MB-231 cells [1]; Homo sapiens, MDA-MB-231, FIG. 2 legend, value matches conventional assay, read-out: IC50 (FIG. 2 legend)
  IC50: 2000 µM
MDA-MB-231 cells [1]; [4]
  IC50: 2000 µM
MDA-MB-231 cells [2]; Homo sapiens, MDA-MB-231
  IC50: 302 µM

## CC[C@@]1(O)C(=O)OCc2c1cc1n(c2=O)Cc2cc3c(CN(C)C)c(O)ccc3nc2-1 [Topotecan, topotecan]
MDA-MB-231
  IC50: 1.1 µM
MDA-MB-231 cells [1]; Homo sapiens, MDA-MB-231, FIG. 2 legend, values match conventional assay, read-out: IC50 (FIG. 2 legend)
  IC50: 2 µM
MDA-MB-231 cells [1]; [4]
  IC50: 2 µM
MDA-MB-231 cells [1]; single agent
  effect on cell viability as a single agent: dose-dependently reduced survival
MDA-MB-231 cells [2]; Homo sapiens, MDA-MB-231
  IC50: 1.2 µM
MDA-MB-231 cells [2]
  effect on cell viability as a single agent: dose-dependently reduced survival

## O=c1c(O)c(-c2ccc(O)c(O)c2)oc2cc(O)cc(O)c12 [quercetin]
MDA-MB-231 cells [1]; single agent
  effect on cell viability as a single agent: negligible and dose independent
MDA-MB-231 cells [1]; single agent, listed as Quercetin
  effect on cell viability as a single agent: negligible cytotoxic effect
MDA-MB-231 cells [2]
  effect on cell viability as a single agent: negligible and dose independent
MDA-MB-231 cells [2]; listed as Quercetin
  effect on cell viability as a single agent: negligible cytotoxic effect

## bleomycin
[3]
  IC50: 12 µM
MDA-MB-231 cells [1]; FIG. 2 legend, values match conventional assay, read-out: IC50 (FIG. 2 legend)
  IC50: 30 µM
MDA-MB-231 cells [1]; well plate, single agent, read-out: Conventional IC50
  IC50: 20 µM
MDA-MB-231 cells [2]
  IC50: 0.12 µM
